{
  "source": "the supplement of paper PMC10307832",
  "test_in_all_cases": "relative viability (nuclei count vs DMSO), 5 days (fraction); higher = more cells survive",
  "key": {"AGI-6780": {"compound": "O=C(Nc1cccc(C(F)(F)F)c1)Nc1cc(S(=O)(=O)NC2CC2)ccc1-c1ccsc1 [AGI-6780]", "outline": "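Lung cancer cell lines in 1536-well plates were kept overnight at 37 °C, then pinned with five library-drug doses (not always all listed) spaced by √10 on vehicle-anchored plates. After 5 days without medium change, cells were fixed, permeabilised and Hoechst-stained in one step, imaged at 4×, and nuclei were counted with MetaXpress. Viability is treated-well nuclei divided by vehicle-well nuclei, taken as the median over plates. Plates passed only with control CV below 25% and at least one doubling.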"}, "AGI-6780 + Bortezomib": {"compound": "O=C(Nc1cccc(C(F)(F)F)c1)Nc1cc(S(=O)(=O)NC2CC2)ccc1-c1ccsc1 [AGI-6780] + CC(C)C[C@H](NC(=O)[C@H](Cc1ccccc1)NC(=O)c1cnccn1)B(O)O [Bortezomib] (partner 0.002 µM)", "outline": "(§1)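 Dosing by pin tool came one day after lung cancer cell lines were seeded in 1536-well plates, using either one drug or a fixed anchor-drug dose plus five library-drug doses (not always all listed) in √10 steps. After 5 days, nuclei were counted on 4× images. Relative viability is treated-well nuclei count divided by vehicle-well nuclei count, and values are medians of duplicate plates.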"}, "AGI-6780 + Navitoclax": {"compound": "O=C(Nc1cccc(C(F)(F)F)c1)Nc1cc(S(=O)(=O)NC2CC2)ccc1-c1ccsc1 [AGI-6780] + CC1(C)CCC(c2ccc(Cl)cc2)=C(CN2CCN(c3ccc(C(=O)NS(=O)(=O)c4ccc(N[C@H](CCN5CCOCC5)CSc5ccccc5)c(S(=O)(=O)C(F)(F)F)c4)cc3)CC2)C1 [Navitoclax] (partner 0.5 µM)", "outline": "as §1"}, "AGI-6780 + Foretinib": {"compound": "O=C(Nc1cccc(C(F)(F)F)c1)Nc1cc(S(=O)(=O)NC2CC2)ccc1-c1ccsc1 [AGI-6780] + COc1cc2c(Oc3ccc(NC(=O)C4(C(=O)Nc5ccc(F)cc5)CC4)cc3F)ccnc2cc1OCCCN1CCOCC1 [Foretinib] (partner 0.25 µM)", "outline": "as §1"}, "AGI-6780 + Lapatinib": {"compound": "O=C(Nc1cccc(C(F)(F)F)c1)Nc1cc(S(=O)(=O)NC2CC2)ccc1-c1ccsc1 [AGI-6780] + CS(=O)(=O)CCNCc1ccc(-c2ccc3ncnc(Nc4ccc(OCc5cccc(F)c5)c(Cl)c4)c3c2)o1 [Lapatinib] (partner 2 µM)", "outline": "as §1"}, "AGI-6780 + Pictilisib": {"compound": "O=C(Nc1cccc(C(F)(F)F)c1)Nc1cc(S(=O)(=O)NC2CC2)ccc1-c1ccsc1 [AGI-6780] + CS(=O)(=O)N1CCN(Cc2cc3nc(-c4cccc5[nH]ncc45)nc(N4CCOCC4)c3s2)CC1 [Pictilisib] (partner 1 µM)", "outline": "as §1"}, "AGI-6780 + Crizotinib": {"compound": "O=C(Nc1cccc(C(F)(F)F)c1)Nc1cc(S(=O)(=O)NC2CC2)ccc1-c1ccsc1 [AGI-6780] + C[C@@H](Oc1cc(-c2cnn(C3CCNCC3)c2)cnc1N)c1c(Cl)ccc(F)c1Cl [Crizotinib] (partner 1 µM)", "outline": "as §1"}, "AGI-6780 + Linsitinib": {"compound": "O=C(Nc1cccc(C(F)(F)F)c1)Nc1cc(S(=O)(=O)NC2CC2)ccc1-c1ccsc1 [AGI-6780] + C[C@]1(O)C[C@@H](c2nc(-c3ccc4ccc(-c5ccccc5)nc4c3)c3c(N)nccn32)C1 [Linsitinib] (partner 1 µM)", "outline": "as §1"}, "AGI-6780 + Alpelisib": {"compound": "O=C(Nc1cccc(C(F)(F)F)c1)Nc1cc(S(=O)(=O)NC2CC2)ccc1-c1ccsc1 [AGI-6780] + Cc1nc(NC(=O)N2CCC[C@H]2C(N)=O)sc1-c1ccnc(C(C)(C)C(F)(F)F)c1 [Alpelisib] (partner 2 µM)", "outline": "as §1"}, "AGI-6780 + Vorinostat": {"compound": "O=C(Nc1cccc(C(F)(F)F)c1)Nc1cc(S(=O)(=O)NC2CC2)ccc1-c1ccsc1 [AGI-6780] + O=C(CCCCCCC(=O)Nc1ccccc1)NO [Vorinostat] (partner 1 µM)", "outline": "as §1"}, "AGI-6780 + Olaparib": {"compound": "O=C(Nc1cccc(C(F)(F)F)c1)Nc1cc(S(=O)(=O)NC2CC2)ccc1-c1ccsc1 [AGI-6780] + O=C(c1cc(Cc2n[nH]c(=O)c3ccccc23)ccc1F)N1CCN(C(=O)C2CC2)CC1 [Olaparib] (partner 8 µM)", "outline": "as §1"}},
  "data": [
    {"cell line": "IA-LM", "values": [
      {"measurement": "relative viability", "setting": "AGI-6780; 0.08 µM", "value": 0.921},
      {"measurement": "relative viability", "setting": "AGI-6780; 0.253 µM", "value": 0.954},
      {"measurement": "relative viability", "setting": "AGI-6780; 0.8 µM", "value": 1.15},
      {"measurement": "relative viability", "setting": "AGI-6780; 2.53 µM", "value": 1.02},
      {"measurement": "relative viability", "setting": "AGI-6780; 8 µM", "value": 1.04},
      {"measurement": "relative viability", "setting": "AGI-6780 + Bortezomib; first compound 0.08 µM", "value": 0.91},
      {"measurement": "relative viability", "setting": "AGI-6780 + Bortezomib; first compound 0.253 µM", "value": 0.876},
      {"measurement": "relative viability", "setting": "AGI-6780 + Bortezomib; first compound 0.8 µM", "value": 0.811},
      {"measurement": "relative viability", "setting": "AGI-6780 + Bortezomib; first compound 2.53 µM", "value": 0.977},
      {"measurement": "relative viability", "setting": "AGI-6780 + Bortezomib; first compound 8 µM", "value": 0.829},
      {"measurement": "relative viability", "setting": "AGI-6780 + Navitoclax; first compound 0.08 µM", "value": 0.761},
      {"measurement": "relative viability", "setting": "AGI-6780 + Navitoclax; first compound 0.253 µM", "value": 0.768},
      {"measurement": "relative viability", "setting": "AGI-6780 + Navitoclax; first compound 0.8 µM", "value": 0.908},
      {"measurement": "relative viability", "setting": "AGI-6780 + Navitoclax; first compound 2.53 µM", "value": 0.787},
      {"measurement": "relative viability", "setting": "AGI-6780 + Navitoclax; first compound 8 µM", "value": 0.959},
      {"measurement": "relative viability", "setting": "AGI-6780 + Foretinib; first compound 0.08 µM", "value": 1.28},
      {"measurement": "relative viability", "setting": "AGI-6780 + Foretinib; first compound 0.253 µM", "value": 1.13},
      {"measurement": "relative viability", "setting": "AGI-6780 + Foretinib; first compound 0.8 µM", "value": 1.21},
      {"measurement": "relative viability", "setting": "AGI-6780 + Foretinib; first compound 2.53 µM", "value": 1.13},
      {"measurement": "relative viability", "setting": "AGI-6780 + Foretinib; first compound 8 µM", "value": 1.15},
      {"measurement": "relative viability", "setting": "AGI-6780 + Lapatinib; first compound 0.08 µM", "value": 1.01},
      {"measurement": "relative viability", "setting": "AGI-6780 + Lapatinib; first compound 0.253 µM", "value": 0.845},
      {"measurement": "relative viability", "setting": "AGI-6780 + Lapatinib; first compound 0.8 µM", "value": 0.928},
      {"measurement": "relative viability", "setting": "AGI-6780 + Lapatinib; first compound 2.53 µM", "value": 0.83},
      {"measurement": "relative viability", "setting": "AGI-6780 + Lapatinib; first compound 8 µM", "value": 0.896},
      {"measurement": "relative viability", "setting": "AGI-6780 + Pictilisib; first compound 0.08 µM", "value": 0.452},
      {"measurement": "relative viability", "setting": "AGI-6780 + Pictilisib; first compound 0.253 µM", "value": 0.38},
      {"measurement": "relative viability", "setting": "AGI-6780 + Pictilisib; first compound 0.8 µM", "value": 0.39},
      {"measurement": "relative viability", "setting": "AGI-6780 + Pictilisib; first compound 2.53 µM", "value": 0.301},
      {"measurement": "relative viability", "setting": "AGI-6780 + Pictilisib; first compound 8 µM", "value": 0.476},
      {"measurement": "relative viability", "setting": "AGI-6780 + Crizotinib; first compound 0.08 µM", "value": 1.12},
      {"measurement": "relative viability", "setting": "AGI-6780 + Crizotinib; first compound 0.253 µM", "value": 0.76},
      {"measurement": "relative viability", "setting": "AGI-6780 + Crizotinib; first compound 0.8 µM", "value": 1.09},
      {"measurement": "relative viability", "setting": "AGI-6780 + Crizotinib; first compound 2.53 µM", "value": 0.827},
      {"measurement": "relative viability", "setting": "AGI-6780 + Crizotinib; first compound 8 µM", "value": 0.876},
      {"measurement": "relative viability", "setting": "AGI-6780 + Linsitinib; first compound 0.08 µM", "value": 0.58},
      {"measurement": "relative viability", "setting": "AGI-6780 + Linsitinib; first compound 0.253 µM", "value": 0.627},
      {"measurement": "relative viability", "setting": "AGI-6780 + Linsitinib; first compound 0.8 µM", "value": 0.762},
      {"measurement": "relative viability", "setting": "AGI-6780 + Linsitinib; first compound 2.53 µM", "value": 0.536},
      {"measurement": "relative viability", "setting": "AGI-6780 + Linsitinib; first compound 8 µM", "value": 0.56},
      {"measurement": "relative viability", "setting": "AGI-6780 + Alpelisib; first compound 0.08 µM", "value": 0.858},
      {"measurement": "relative viability", "setting": "AGI-6780 + Alpelisib; first compound 0.253 µM", "value": 0.846},
      {"measurement": "relative viability", "setting": "AGI-6780 + Alpelisib; first compound 0.8 µM", "value": 0.719},
      {"measurement": "relative viability", "setting": "AGI-6780 + Alpelisib; first compound 2.53 µM", "value": 0.797},
      {"measurement": "relative viability", "setting": "AGI-6780 + Alpelisib; first compound 8 µM", "value": 0.707},
      {"measurement": "relative viability", "setting": "AGI-6780 + Vorinostat; first compound 0.253 µM", "value": 0.857},
      {"measurement": "relative viability", "setting": "AGI-6780 + Vorinostat; first compound 0.8 µM", "value": 1.06},
      {"measurement": "relative viability", "setting": "AGI-6780 + Vorinostat; first compound 2.53 µM", "value": 1.04},
      {"measurement": "relative viability", "setting": "AGI-6780 + Vorinostat; first compound 8 µM", "value": 0.778},
      {"measurement": "relative viability", "setting": "AGI-6780 + Olaparib; first compound 0.08 µM", "value": 1.05},
      {"measurement": "relative viability", "setting": "AGI-6780 + Olaparib; first compound 0.253 µM", "value": 0.763},
      {"measurement": "relative viability", "setting": "AGI-6780 + Olaparib; first compound 0.8 µM", "value": 1},
      {"measurement": "relative viability", "setting": "AGI-6780 + Olaparib; first compound 2.53 µM", "value": 0.869},
      {"measurement": "relative viability", "setting": "AGI-6780 + Olaparib; first compound 8 µM", "value": 0.927}
    ]}
  ]
}
